Source: publication PMC6792352, “Limited Chemical Structural Diversity Found to Modulate Thyroid Hormone Receptor in the Tox21 Chemical Library” (Environmental Health Perspectives, 2019)
Structures can show the parent of a compound that is named as a salt.

Assay: in vitro
Conditions: rat, gh3-tre-luc cells, AC50 (uM) modified / 1000

Compound	CC50 at 24 h [µM]
C=CCOC(=O)CC(C)C [Allyl isovalerate]	> 90
CCOC(=O)NNc1nncc2ccccc12 [Todralazine hydrochloride]	> 50
Cc1ncc(C[n+]2csc(CCOP(=O)(O)O)c2C)c(N)n1 [Monophosphothiamine]	> 50
N[C@@H](C(=O)N[C@@H]1C(=O)N2C(C(=O)O)=C(Cl)CC[C@H]12)c1ccccc1 [Loracarbef monohydrate]	> 50
CC(S)C(=O)NCC(=O)O (stereo not drawn) [Tiopronin]	> 50
CCCCOc1ccc(OCCCN2CCOCC2)cc1 [Pramoxine hydrochloride]	> 20
CCOC(=O)CCC(=O)O[C@H]1[C@H](O[C@@H]2[C@@H](C)[C@H](O[C@H]3C[C@@](C)(OC)[C@@H](O)[C@H](C)O3)[C@@H](C)C(=O)O[C@H](CC)[C@@](C)(O)[C@H](O)[C@@H](C)C(=O)[C@H](C)C[C@@]2(C)O)O[C@H](C)C[C@@H]1N(C)C [Erythromycin ethylsuccinate]	> 50
O=C(NCO)NCO [Dimethylolurea]	> 100
CSCCCN=C=S [3-(Methylthio)propyl isothiocyanate]	> 90
CCCCCCCCCC(C)=O [2-Undecanone]	> 90
CC(=O)Nc1ccc(OCC(O)CNC(C)C)cc1 (stereo not drawn) [Practolol]	> 50
O=C(O)Cc1cccc(-c2cc(CCCCCCc3ccc(O[C@H]4O[C@H](CO)[C@@H](O)[C@H](O)[C@@H]4O)c(-c4cccc(CC(=O)O)c4)c3)ccc2O[C@H]2O[C@H](CO)[C@@H](O)[C@H](O)[C@@H]2O)c1 [Bimosiamose]	> 50
CCN(CCCCOC(=O)c1ccc(OC)c(OC)c1)C(C)Cc1ccc(OC)cc1 (stereo not drawn) [Mebeverine hydrochloride]	> 20
CCSC(=O)N(CC)CC [Ethiolate]	> 90
Cc1cc(C(=O)NNCc2ccccc2)no1 [Isocarboxazid]	> 20
O=C1C(O)=C([C@H]2CC[C@H](c3ccc(Cl)cc3)CC2)C(=O)c2ccccc21 [Atovaquone]	8.49
CN1CCC(CN2c3ccccc3Sc3ccccc32)C1 (stereo not drawn) [Methdilazine hydrochloride]	8.75
NCC[C@H](O)C(=O)N[C@@H]1C[C@H](N)[C@@H](O[C@H]2O[C@H](CN)CC[C@H]2N)[C@H](O)[C@H]1O[C@H]1O[C@H](CO)[C@@H](O)[C@H](N)[C@H]1O [Arbekacin sulfate]	> 50
Nc1ccccc1O [2-Aminophenol]	40.6
CC(C)NCC(O)c1ccccc1Cl (stereo not drawn) [Clorprenaline hydrochloride]	> 50
CC(=O)N(CC(O)CN(C(C)=O)c1c(I)c(C(=O)NC[C@@H](O)CO)c(I)c(C(=O)NC[C@@H](O)CO)c1I)c1c(I)c(C(=O)NC[C@@H](O)CO)c(I)c(C(=O)NC[C@@H](O)CO)c1I [Iodixanol]	> 20
Nc1nnc(-c2cccc(Cl)c2Cl)c(N)n1 [Lamotrigine]	> 50
CC1CC(OC(=O)C(O)c2ccccc2)CC(C)(C)C1 (stereo not drawn) [Cyclandelate]	> 50
O=C(Oc1ccc(Br)cc1)N1CCN2CCC1CC2 [SSR180711]	44
C[C@H]1[C@H]2CC[C@H]3[C@@H]4CC=C5C[C@@H](N(C)C)CC[C@]5(C)[C@H]4CC[C@]23CN1C [Conessine]	> 50
Cc1nnc(C(C)C)n1[C@@H]1C[C@H]2CC[C@@H](C1)N2CC[C@H](NC(=O)C1CCC(F)(F)CC1)c1ccccc1 [Maraviroc]	> 50

Compound	CC50 at 24 h [µM]
Oc1ccccc1Cl [2-Chlorophenol]	> 90
S=C(S)NCCNC(=S)S [Nabam-sodium]	> 90
Nc1ccc2c(c1)C(=O)c1ccccc1C2=O [2-Aminoanthraquinone]	> 90
Brc1c(NC2=NCCN2)ccc2nccnc12 [Brimonidine]	> 50
CCCCCCCCC [Nonane]	> 90
COc1ccc2cc3[n+](cc2c1OC)CCc1cc2c(cc1-3)OCO2 [Berberine chloride]	88.5
CN(C)c1cccc(O)c1 [3-Dimethylaminophenol]	> 90
Cc1cc(OI)c(C(C)C)cc1-c1cc(C(C)C)c(OI)cc1C [Thymol iodide]	> 50
CNC(=S)N(C)C [1,1,3-Trimethyl-2-thiourea]	> 90
Clc1ccc2nsnc2c1NC1=NCCN1 [Tizanidine]	> 50
CN1CC[C@H](c2c(O)cc(O)c3c(=O)cc(-c4ccccc4Cl)oc23)[C@H](O)C1 [Flavopiridol hydrochloride]	0.302
CCCCCC/C=C\CCCCCCCC(=O)O [(Z)-Hexadec-9-enoic acid]	> 90
N#Cc1nc(Cl)c(Cl)c(Cl)c1Cl [3,4,5,6-Tetrachloropyridine-2-carbonitrile]	3
CC(COc1ccc(Oc2ccccc2)cc1)Oc1ccccn1 (stereo not drawn) [Pyriproxyfen]	> 90
CC(=O)OCCN(CCOC(C)=O)c1ccc(N=Nc2ccc([N+](=O)[O-])cc2C#N)cc1 [Disperse Red 82]	54
CCC(=O)O[C@H]1[C@@H](N2CCCCC2)C[C@H]2[C@@H]3CC[C@H]4C[C@H](OC(C)=O)[C@@H](N5CCCCC5)C[C@]4(C)[C@H]3CC[C@@]21C [(2beta,3alpha,5alpha,16beta,17beta)-3-Acetoxy-2,16-di(1-piperidinyl)androstan-17-yl propionate]	> 50
O=C(O)c1cc(=O)c2ccccc2o1 [Chromocarb]	> 50
COc1c(Br)cc(Br)c(C)c1Br [1,3,5-Tribromo-2-methoxy-4-methylbenzene]	> 90
CCCCOC(=O)CCCCCCCC(=O)OCCCC [Dibutyl nonanedioate]	> 90
CC(=O)OC1C2(C)CCC(C2)C1(C)C (stereo not drawn) [Fenchyl acetate]	> 90
CC(=O)[C@H]1[C@H](C#N)C[C@H]2[C@@H]3CC=C4C[C@@H](O)CC[C@]4(C)[C@H]3CC[C@@]21C [Pregnenolone carbonitrile]	> 60
CC(C=O)Cc1ccc(C(C)C)cc1 (stereo not drawn) [Cyclamen aldehyde]	> 90
C[Si](C)O[Si](C)(C)O[Si](C)(C)O[Si](C)C	> 90
ON=C1CCCC1 [Cyclopentanone oxime]	> 90
O=C1C2CC3CC1CC(O)(C3)C2 [Idramantone]	> 50
CCCCCCCCCCC=O [Undecanal]	> 90

Compound	CC50 at 24 h [µM]
CC[C@H]1C[C@@H]2C[C@H]3c4[nH]c5ccc(OC)cc5c4CCN(C2)[C@@H]13 [Ibogaine hydrochloride]	62.4
C[CH2][Ge]([Cl])([CH2]C)[CH2]C [Triethylgermanium chloride]	> 90
O=c1ssc(Cl)c1Cl [4,5-Dichloro-3H-1,2-dithiol-3-one]	48
CCCC[N+](CCCC)(CCCC)CCCC [Tetrabutylammonium bromide]	> 90
CCc1cc(S(=O)(=O)O)c2cc(C(C)C)cccc1-2 [Egualen sodium]	> 50
N=C(N)c1ccc(OCCCOc2ccc(C(=N)N)cc2Br)c(Br)c1 [Dibromopropamidine dihydrochloride]	38.5
c1cc(CN2CCCCC2)cc(OCCCNc2nc3ccccc3s2)c1 [Zolantidine dimaleate]	8.26
C[N+]1(C)CCCCC1 [Mepiquat chloride]	> 90
O=C(O)[C@H](O)[C@@H](O)C(=O)O [L-Tartaric acid]	> 90
CC1CC(=O)NN=C1c1ccc(NCC(C)(C)NCC(O)COc2cc(Cl)ccc2C#N)cc1 (stereo not drawn) [Oberadilol]	> 50
CC1(C2CCC3(C)OC3C2)CO1 (stereo not drawn) [Limonene dioxide]	> 90
O=S(=O)(Oc1ccc(Cl)cc1Cl)c1ccccc1 [2,4-Dichlorophenyl benzenesulfonate]	> 90
Clc1nnc(Cl)c2ccccc12 [1,4-Dichlorophthalazine]	> 90
Cc1cc(Cl)ccc1O [4-Chloro-2-methylphenol]	> 90
CCCCCCOc1ccccc1C(N)=O [Exalamide]	> 50
CC(C)(C)c1ccc(N)cc1 [4-tert-Butylaniline]	> 90
C=CCOCC(CC)(CO)COCC=C [2,2-Bis[(prop-2-en-1-yloxy)methyl]butan-1-ol]	> 90
CCCCCCCCCCCCCCCCCC(=O)OC[C@@H](O)[C@H]1OC[C@H](O)[C@H]1O [Anhydrosorbitol stearate]	> 50
CC(C)C1CCC(Cc2ccc(Cl)cc2)C1(O)Cn1cncn1 (stereo not drawn) [Ipconazole]	41.7
CCOC(=O)[C@H](CCc1ccccc1)N[C@H]1CCCN2CCC[C@@H](C(=O)O)N2C1=O [Cilazapril]	> 50
CO/C=C(/C(=O)OC)c1ccccc1COc1cccc(C(F)(F)F)n1 [Picoxystrobin]	> 90
CCc1nc(C)c[nH]1 [2-Ethyl-4-methyl-1H-imidazole]	> 90
CCCCCCCCCCCCCCCS(=O)(=O)Oc1ccccc1 [C10-21 alkanesulfonic acids phenyl esters]	> 50
O=C1NCC2(CCN(CCc3ccccc3)CC2)O1 [Fenspiride hydrochloride]	> 50

Same assay, conditions: rat, gh3-tre-luc cells, AC50 (uM) modified / 1000, Tox21_110001=Tox21_111785; viability, 1 nM T3 present, 24 h

Compound	CC50 at 24 h [µM]
COc1ccc(C(=O)c2c(C)n(CCN3CCOCC3)c3ccccc23)cc1 [Pravadoline]	> 50

Same assay, conditions: rat, gh3-tre-luc cells, AC50 (uM) modified / 1000, Tox21_110001=Tox21_112600; viability, 1 nM T3 present, 24 h

Compound	CC50 at 24 h [µM]
CCCCCCC(=O)O[C@H]1CC[C@H]2[C@@H]3CC[C@H]4CC(=O)C=C(C)[C@]4(C)[C@H]3CC[C@]12C [Methenolone enanthate]	> 50

Same assay, conditions: rat, gh3-tre-luc cells, AC50 (uM) modified / 1000, Tox21_110001=Tox21_112688; viability, 1 nM T3 present, 24 h

Compound	CC50 at 24 h [µM]
CCCC1CCCCN1 (racemic) [dl-Coniine]	> 50

Same assay, conditions: rat, gh3-tre-luc cells, AC50 (uM) modified / 1000, Tox21_110001=Tox21_201451; viability, 1 nM T3 present, 24 h

Compound	CC50 at 24 h [µM]
CNC(=O)N(C)c1nnc(C(C)(C)C)s1 [Tebuthiuron]	> 90

Same assay, conditions: rat, gh3-tre-luc cells, AC50 (uM) modified / 1000, Tox21_110001=Tox21_301196; viability, 1 nM T3 present, 24 h

Compound	CC50 at 24 h [µM]
N#CCC#N [Propanedinitrile]	40.5
